Reference: US6447748B1, “Benzamide compounds for cancer imaging and therapy” (Research Corporation Technologies, Inc., priority 1993, dated 2002)

Tests used:
[1] = tested on: human squamous cell carcinoma xenografts; experiment: Biodistribution in nude mice xenografted with human squamous cell carcinoma; type: in vivo, Balb/c nu/nu mice; details: for Biodistribution Blood / Biodistribution Bone / Biodistribution Brain / Biodistribution Heart / Biodistribution Intestine / Biodistribution Kidney / Biodistribution Liver / Biodistribution Lung / Biodistribution Spleen / Biodistribution Stomach / Biodistribution Thyroid / Biodistribution Tumor: nude mice, human squamous cell carcinoma, mean (std. dev.), n = 6
Description: Non-small cell lung carcinoma cell lines NCI-157, NCI-838 and NCI-1299 were obtained from the National Cancer Institute. The NCI-157 cell line is a squamous carcinoma cell line, while NCI-838 is an adenocarcinoma cell line and NCI-1299 is a large cell lung carcinoma cell. […] Suspension of 5×10^6 cells (viability greater than 95%) in 0.2 mL of medium were inoculated subcutaneously in female Balb/c nu/nu mice. After about two weeks, solid tumors of about 1 cm in diameter appeared in approximately 85% of all inoculated mice. […] Balb/c nu/nu mice (17-22 g) were injected intravenously with 0.2 ml of a saline solution containing [^125I]PAB (5-6 μCi). […] The values obtained were normalized to a mouse weighing 20 g.

[2] = tested on: human A2058 melanoma xenografts; experiment: Biodistribution in nude mice xenografted with human melanotic melanoma; type: in vivo, Balb/c nu/nu mice; details: for RATIO Tumor/Blood / RATIO Tumor/Muscle / Biodistribution Blood / Biodistribution Bone / Biodistribution Brain / Biodistribution Heart / Biodistribution Intestine / Biodistribution Kidney / Biodistribution Liver / Biodistribution Lung / Biodistribution Muscle / Biodistribution Spleen / Biodistribution Stomach / Biodistribution Thyroid / Biodistribution Tumor: nude mice, human melanotic melanoma, mean (std. dev.); for Biodistribution Blood / Biodistribution Bone / Biodistribution Brain / Biodistribution Heart / Biodistribution Intestine / Biodistribution Kidney / Biodistribution Liver / Biodistribution Lung / Biodistribution Muscle / Biodistribution Spleen / Biodistribution Stomach / Biodistribution Thyroid / Biodistribution Tumor: n = 6
Description: A2058 tumor cells, derived from a brain metastasis of human malignant melanoma (Todaro et al. 1980 Proc. Natl. Acad. Sci. USA 77:5258) were obtained from the National Institutes of Health. […] Suspension of 5×10^6 cells (viability greater than 95%) in 0.2 mL of medium were inoculated subcutaneously in female Balb/c nu/nu mice. After about two weeks, solid tumors of about 1 cm in diameter appeared in approximately 85% of all inoculated mice. […] Balb/c nu/nu mice (17-22 g) were injected intravenously with 0.2 ml of a saline solution containing [^125I]PAB (5-6 μCi). […] The values obtained were normalized to a mouse weighing 20 g. The differences between [^125I]PAB and [^125I]DAB were examined by Student's unpaired t tests.

Biodistribution Blood ([1]; 1 hr.): 1.99 (0.35) % ID/g | Biodistribution Bone ([1]; 1 hr.): 2.03 (0.28) % ID/g | Biodistribution Brain ([1]; 1 hr.): 1.80 (0.17) % ID/g | Biodistribution Heart ([1]; 1 hr.): 2.25 (0.07) % ID/g | Biodistribution Intestine ([1]; 1 hr.): 12.63 (0.43) % ID/g | Biodistribution Kidney ([1]; 1 hr.): 6.56 (0.04) % ID/g | Biodistribution Liver ([1]; 1 hr.): 10.48 (1.26) % ID/g | Biodistribution Lung ([1]; 1 hr.): 4.91 (0.25) % ID/g | Biodistribution Spleen ([1]; 1 hr.): 3.97 (0.18) % ID/g | Biodistribution Stomach ([1]; 1 hr.): 5.57 (1.31) % ID/g | Biodistribution Thyroid ([1]; 1 hr.): 7.84 (0.91) % ID/g | Biodistribution Tumor ([1]; 1 hr.): 4.27 (0.40) % ID/g | Biodistribution Blood ([1]; 6 hr.): 0.51 (0.03) % ID/g | Biodistribution Bone ([1]; 6 hr.): 0.56 (0.18) % ID/g | Biodistribution Brain ([1]; 6 hr.): 0.29 (0.01) % ID/g | Biodistribution Heart ([1]; 6 hr.): 0.49 (0.03) % ID/g | Biodistribution Intestine ([1]; 6 hr.): 11.41 (0.52) % ID/g | Biodistribution Kidney ([1]; 6 hr.): 1.61 (0.28) % ID/g | Biodistribution Liver ([1]; 6 hr.): 3.47 (0.23) % ID/g | Biodistribution Lung ([1]; 6 hr.): 1.10 (0.03) % ID/g | Biodistribution Spleen ([1]; 6 hr.): 0.86 (0.20) % ID/g | Biodistribution Stomach ([1]; 6 hr.): 3.46 (0.18) % ID/g | Biodistribution Thyroid ([1]; 6 hr.): 2.80 (0.49) % ID/g | Biodistribution Tumor ([1]; 6 hr.): 3.27 (0.33) % ID/g | Biodistribution Blood ([1]; 24 hr.): 0.15 (0.07) % ID/g | Biodistribution Bone ([1]; 24 hr.): 0.02 (0.00) % ID/g | Biodistribution Brain ([1]; 24 hr.): 0.01 (0.00) % ID/g | Biodistribution Heart ([1]; 24 hr.): 0.03 (0.00) % ID/g | Biodistribution Intestine ([1]; 24 hr.): 0.38 (0.09) % ID/g | Biodistribution Kidney ([1]; 24 hr.): 0.13 (0.00) % ID/g | Biodistribution Liver ([1]; 24 hr.): 0.39 (0.02) % ID/g | Biodistribution Lung ([1]; 24 hr.): 0.08 (0.00) % ID/g | Biodistribution Spleen ([1]; 24 hr.): 0.05 (0.00) % ID/g | Biodistribution Stomach ([1]; 24 hr.): 0.20 (0.03) % ID/g | Biodistribution Thyroid ([1]; 24 hr.): 0.09 (0.01) % ID/g | Biodistribution Tumor ([1]; 24 hr.): 0.66 (0.12) % ID/g | tumor concentration relative to that of [125I]DAB ([1]; 24 hrs. post-injection, squamous cell carcinoma xenograft): more than three-fold | RATIO Tumor/Blood ([2]; 1 Hour): 4.16 (1.09) | RATIO Tumor/Muscle ([2]; 1 Hour): 7.16 (1.50) | Biodistribution Blood ([2]; 1 Hour): 0.967 (.168) % ID/g | Biodistribution Bone ([2]; 1 Hour): 0.750 (.0663) % ID/g | Biodistribution Brain ([2]; 1 Hour): 0.895 (.0887) % ID/g | Biodistribution Heart ([2]; 1 Hour): 1.14 (.207) % ID/g | Biodistribution Intestine ([2]; 1 Hour): 10.64 (.541) % ID/g | Biodistribution Kidney ([2]; 1 Hour): 3.82 (.561) % ID/g | Biodistribution Liver ([2]; 1 Hour): 6.36 (.770) % ID/g | Biodistribution Lung ([2]; 1 Hour): 2.34 (.277) % ID/g | Biodistribution Muscle ([2]; 1 Hour): 0.552 (.0711) % ID/g | Biodistribution Spleen ([2]; 1 Hour): 3.11 (.789) % ID/g | Biodistribution Stomach ([2]; 1 Hour): 3.23 (.697) % ID/g | Biodistribution Thyroid ([2]; 1 Hour): 4.23 (.594) % ID/g | Biodistribution Tumor ([2]; 1 Hour): 3.87 (.470) % ID/g | RATIO Tumor/Blood ([2]; 6 Hour): 14.9 (5.07) | RATIO Tumor/Muscle ([2]; 6 Hour): 32.5 (12.0) | Biodistribution Blood ([2]; 6 Hour): 0.208 (.0542) % ID/g | Biodistribution Bone ([2]; 6 Hour): 0.115 (.0236) % ID/g | Biodistribution Brain ([2]; 6 Hour): 0.122 (.0331) % ID/g | Biodistribution Heart ([2]; 6 Hour): 0.167 (.0372) % ID/g | Biodistribution Intestine ([2]; 6 Hour): 2.46 (1.18) % ID/g | Biodistribution Kidney ([2]; 6 Hour): 0.483 (.131) % ID/g | Biodistribution Liver ([2]; 6 Hour): 1.16 (.212) % ID/g | Biodistribution Lung ([2]; 6 Hour): 0.387 (.0568) % ID/g | Biodistribution Muscle ([2]; 6 Hour): 0.0983 (.0306) % ID/g | Biodistribution Spleen ([2]; 6 Hour): 0.330 (.105) % ID/g | Biodistribution Stomach ([2]; 6 Hour): 0.757 (.298) % ID/g | Biodistribution Thyroid ([2]; 6 Hour): 0.583 (.203) % ID/g | Biodistribution Tumor ([2]; 6 Hour): 2.91 (.463) % ID/g | RATIO Tumor/Blood ([2]; 24 Hour): 17.8 (6.10) | RATIO Tumor/Muscle ([2]; 24 Hour): 94.5 (32.5) | Biodistribution Blood ([2]; 24 Hour): 0.0617 (.018) % ID/g | Biodistribution Bone ([2]; 24 Hour): 0.0133 (.0052) % ID/g | Biodistribution Brain ([2]; 24 Hour): 0.0067 (.0052) % ID/g | Biodistribution Heart ([2]; 24 Hour): 0.0283 (.0075) % ID/g | Biodistribution Intestine ([2]; 24 Hour): 0.132 (.0852) % ID/g | Biodistribution Kidney ([2]; 24 Hour): 0.0850 (.016) % ID/g | Biodistribution Liver ([2]; 24 Hour): 0.263 (.0216) % ID/g | Biodistribution Lung ([2]; 24 Hour): 0.0717 (.0075) % ID/g | Biodistribution Muscle ([2]; 24 Hour): 0.0117 (.0041) % ID/g | Biodistribution Spleen ([2]; 24 Hour): 0.0383 (.015) % ID/g | Biodistribution Stomach ([2]; 24 Hour): 0.130 (0.881) % ID/g | Biodistribution Thyroid ([2]; 24 Hour): 0.100 (.143) % ID/g | Biodistribution Tumor ([2]; 24 Hour): 1.028 (.239) % ID/g | amount in tumors relative to livers ([2]; 24 hrs., melanoma xenograft): about four-fold | tumor concentration relative to that of [125I]DAB ([2]; 24 hrs., melanoma xenograft): twice
SMILES: O=C(NCCN1CCCCC1)c1ccc([125I])cc1 [[^125I]PAB, ^125I(2-piperidinylaminoethyl)4-iodobenzamide]
